Laboratory results reported in PMC10072319 (Bioorganic & medicinal chemistry letters, 2023).

How the values were obtained:
[1] = tested on: T. b. brucei parasites; assay: Time-kill experiment, parasites quantified by hemocytometer cell counting; format: cell-based, Trypanosoma brucei brucei; settings: for time required to kill the parasites: all concentrations tested (46: 1, 2 and 4 μM; pentamidine: 0.5, 1 and 2 μM)
[2] = tested on: T. b. brucei Lister 427; format: cell-based, Trypanosoma brucei brucei; settings: for activity against T. b. brucei, in words: first pass screen at 4 μM
[3] = tested on: T. b. brucei trypanosomes; assay: Washout experiment; format: cell-based, Trypanosoma brucei brucei; settings: 1, 2 and 4 μM for 6, 4 and 2 h, washed three times, monitored a further 48 h
[4] = tested on: HEK293 cells; assay: Resazurin cell viability; settings: read-out: HEK293 CC50, 48 h, mean ± SD

## N=C(N)c1ccc(OCCCCCOc2ccc(C(=N)N)cc2)cc1 [Pentamidine, reference compound]
[1]
  time required to kill the parasites: > 30 h

## COc1cccc(/C=C/C(=O)/C=C/c2cccc(OC)c2)c1 [Compound 28]
[2]
  activity against T. b. brucei, in words: inactive

## COc1ccc(/C=C/C(=O)CC(=O)/C=C/c2ccc(OC)c(OC)c2)cc1OC [Compound 8]
[2]
  activity against T. b. brucei, in words: inactive

## COc1cc(/C=C2\CCC/C(=C\c3cc(OC)cc(OC)c3)C2=O)cc(OC)c1 [Compound 34]
[2]
  activity against T. b. brucei, in words: inactive

## CN(C)c1ccc(/C=C/C(=O)/C=C/c2ccccc2)cc1 [Compound 40]
[2]
  activity against T. b. brucei, in words: no activity

## COc1cccc(/C=C/C(=O)CC(=O)/C=C/c2cccc(OC)c2)c1 [Compound 7]
[2]
  activity against T. b. brucei, in words: inactive

## O=C(/C=C/c1ccc(Cl)c(Cl)c1)CC(=O)/C=C/c1ccc(Cl)c(Cl)c1 [Compound 12]
[2]
  activity against T. b. brucei, in words: inactive

## O=C(/C=C/c1ccc(C(F)(F)F)cc1)CC(=O)/C=C/c1ccc(C(F)(F)F)cc1 [Compound 11]
[2]
  activity against T. b. brucei, in words: inactive

## O=C(/C=C/c1ccccc1)/C=C/c1cccc([N+](=O)[O-])c1 [Compound 46]
[1]
  time required to kill the parasites: less than 24 h
[1]; at 2 and 4 μM
  time required to kill the parasite: less than 6 h
[3]
  trypanocidal vs trypanostatic activity after washout: trypanocidal rather than trypanostatic

## COc1ccc(/C=C/C(=O)/C=C/c2ccc(OC)c(OC)c2)cc1OC [Compound 16]
[2]
  selectivity index (SI = HEK293 CC50/T. b. brucei EC50): above 10
  activity against T. b. brucei, in words: sub-micromolar activity

## O=C(/C=C/c1ccccc1Cl)/C=C/c1ccccc1Cl [Compound 19]
[2]
  selectivity index (SI = HEK293 CC50/T. b. brucei EC50): above 10
  activity against T. b. brucei, in words: sub-micromolar activity

## O=C(/C=C/c1ccccc1)/C=C/c1ccccc1 [Compound 3, dibenzylideneacetone]
[2]; read-out: T. b. brucei EC50, bloodstream forms, Lister 427, SYBR green, 72 h, mean ± SD
  EC50: 0.8 ± 0.2 µM
[4]
  CC50: 8.33 ± 0.48 µM

## COc1ccc(/C=C/C(=O)/C=C/c2ccc(OC)cc2)cc1 [Compound 29]
[2]
  activity against T. b. brucei, in words: inactive

## O=C(/C=C/c1ccccc1)CC(=O)/C=C/c1ccccc1 [Compound 5]
[2]
  activity against T. b. brucei, in words: no measurable activity

## COc1ccc(/C=C/C(=O)/C=C/c2ccccc2)cc1 [Compound 35]
[2]
  activity against T. b. brucei, in words: no activity

## COc1cc(/C=C/C(=O)/C=C/c2cc(OC)c(OC)c(OC)c2)cc(OC)c1OC [Compound 13]
[2]
  activity against T. b. brucei, in words: sub-micromolar activity
